Where two headings read alike, the source gives them in different places.
Experiments:
Format in all cases: in vivo, human
[1] = Pharmacokinetics of cotadutide in plasma (LC-MS/MS)
Experimental: The Cmax and the corresponding tmax were identified from the observed data. Log-linear regression of the terminal phase yielded the terminal rate constant (λz). The area under the plasma concentration time-curve during the dosing interval (AUCτ) was calculated by the log-linear trapezoidal rule. The area under the curve to infinity (AUC0-inf) was calculated as the sum of AUC(o-t) and Ct/z, where Ct is the observed plasma concentration obtained from the log-linear regression analysis of the last quantifiable time point and z is the terminal phase rate constant. Clearance (CL/F) was determined by dose/AUC0-inf, and the terminal half-life (t1/2) was calculated as 0.693/λz.

[2] = test system: overweight/obese subjects with Type 2 Diabetes Mellitus (T2DM); assay: Fasting plasma glucose (FPG), Phase 2a study
Experimental: The change in fasting plasma glucose (FPG) from baseline to Day 28 was assessed.

[3] = test system: overweight/obese subjects with Type 2 Diabetes Mellitus (T2DM); assay: 24-hour glucose urine excretion; conditions: Day 28
Experimental: Changes in 24-hour glucose urine excretion from baseline to Day 28 were assessed. At baseline, subjects in the cotadutide group had less urine glucose excretion compared with subjects in the placebo group (4552.85 vs 9107.06 mg/24 hr, respectively).

[4] = Safety: adverse events, laboratory values, vital signs, ECG
Experimental: (§1) Blood samples were collected to evaluate anti-drug antibody (ADA) response to cotadutide. Serum samples were evaluated for ADA using a validated immunoassay. Adverse events (AEs) and serious adverse events (SAEs) were collected from the time of informed consent throughout the treatment period and including the follow-up period. AEs and SAEs were graded by severity and relationship to investigational product and SAEs were assessed for relationship to protocol procedures.

[5] = Body weight, Phase 2a study
Experimental: Body weight was measured during the screening period, at the start of the run—in period (Day −28), and prior to breakfast on Day 1 (predose) and Day 29. The subject should have taken off their shoes and remove bulky clothing. Calibrated scales were used.
The change and percent change in body weight from baseline (Day 1) to Day 29 (kg) were determined. The proportion of subjects achieving>5% body weight loss from baseline (Day 1) to Day 29 was also determined.

[6] = test system: overweight/obese subjects with Type 2 Diabetes Mellitus (T2DM); conditions: for Change from baseline in percentage of CGM glucose readings within the hyperglycemic range, mean: glucose >180 mg/dL; for Change from baseline in percentage of CGM glucose readings within the euglycemic range, mean: glucose ≥70 and ≤180 mg/dL; for 7-Day CGM mean glucose, mean / 7-Day CGM mean glucose, median: post-hoc
Source text: A continuous glucose monitoring (CGM) device was used to measure interstitial glucose levels during the study. Subjects wore the CGM sensor continuously up until the time of a sensor change (every 7 to 14 days). If a subject was unable to tolerate wearing the CGM sensor for the entire duration of the study, the sensor was to be removed; but the subject should have remained in the study with or without continued CGM.
Subjects underwent continuous glucose monitoring (CGM) for a total of 28 days with sensor changes every 7 to 14 days. The changes in CGM glucose AUC0-24 h and mean glucose over 24 hours from baseline to the end of each dosing level on Days 7 (100 μg), 14 (200 μg), and 28 (300 μg) were measured. Variability in glucose levels was also assessed by measuring the changes in standard deviation (SD), coefficient of variation (CV), and mean amplitude of glucose excursion (MAGE) of CGM glucose values over 24 hours.
Changes from baseline in the percentages of 24-hour CGM glucose readings that fell within the euglycemic, hyperglycemic, hypoglycemic, and clinically significant hypoglycemic ranges were assessed at the end of each dosing level.
In addition, a post-hoc analysis of CGM mean glucose over 7 days was conducted to further evaluate the effect of cotadutide on glucose control at each dose level.

[7] = test system: overweight/obese subjects with Type 2 Diabetes Mellitus (T2DM); assay: Fasting free fatty acid (FFA) levels; conditions: Day 28 (300 μg); vs placebo
Experimental: The changes in fasting free fatty acid (FFA) from baseline to the end of each dose level were assessed. Fasting FFA changes from baseline to Day 7 (100 μg), Day 14 (200 μg), or Day 28 (300 μg) were similar between treatment groups (LS mean difference at Day 28: −0.04 mEq/L; p=0.5322).

[8] = Immunogenicity: anti-drug antibody (ADA) response to cotadutide
Experimental: as §1
Development of ADA and titres (in any subjects testing positive) were assessed to evaluate the immunogenicity profile of cotadutide titrated up to a dose of 300 μg. No subjects in the placebo group and 3 subjects (12.0%) in the cotadutide group tested positive for ADA at baseline. None of these subjects who tested positive at baseline were ADA positive post-baseline. One subject (4.2%) in the placebo group and 3 subjects (12.5%) in the cotadutide group were ADA positive post-baseline.

Compound: CCCCCCCCCCCCCCCC(=O)N[C@@H](CCC(=O)NCCCC[C@H](NC(=O)[C@H](CC(=O)O)NC(=O)[C@H](CO)NC(=O)[C@@H](NC(=O)[C@H](Cc1ccccc1)NC(=O)[C@@H](NC(=O)CNC(=O)[C@H](CCC(N)=O)NC(=O)[C@H](CO)NC(=O)[C@@H](N)Cc1c[nH]cn1)[C@@H](C)O)[C@@H](C)O)C(=O)N[C@@H](CO)C(=O)N[C@@H](CCC(=O)O)C(=O)N[C@@H](Cc1ccc(O)cc1)C(=O)N[C@@H](CC(C)C)C(=O)N[C@@H](CC(=O)O)C(=O)N[C@@H](CO)C(=O)N[C@@H](CCC(=O)O)C(=O)N[C@@H](CCCNC(=N)N)C(=O)N[C@@H](C)C(=O)N[C@@H](CCCNC(=N)N)C(=O)N[C@@H](CC(=O)O)C(=O)N[C@@H](Cc1ccccc1)C(=O)N[C@H](C(=O)N[C@@H](C)C(=O)N[C@@H](Cc1c[nH]c2ccccc12)C(=O)N[C@@H](CC(C)C)C(=O)N[C@@H](CCC(=O)O)C(=O)N[C@@H](C)C(=O)NCC(=O)NCC(=O)O)C(C)C)C(=O)O [Cotadutide]
- Effect of dapagliflozin on cotadutide clinical PK ([1]; cotadutide 100 to 300 μg/day): not affected by the presence of dapagliflozin
- half-life ([1]; human, plasma, subcutaneous, 300 ug, across doses 100, 200 and 300 μg, read-out: Cotadutide half-life t1/2): 8.8 to 9.1 h
- Fasting plasma glucose, Day 28 (LOCF), mean ([2]; Day 28 (LOCF), ITT): 115.33 mg/dL
- Fasting plasma glucose, Day 28 (LOCF), median ([2]; Day 28 (LOCF), ITT): 106.32 mg/dL
- Fasting plasma glucose, change from baseline (LOCF), mean ([2]; baseline to Day 28): -34.24 mg/dL
- Fasting plasma glucose, change from baseline (LOCF), median ([2]; baseline to Day 28): -43.25 mg/dL
- Fasting plasma glucose, change from baseline (LOCF), LS mean ([2]; baseline to Day 28, ANCOVA): -34.15 mg/dL
- Fasting plasma glucose, change from baseline (LOCF), LS mean difference ([2]; baseline to Day 28, vs placebo): -37.73 mg/dL
- 24-hour glucose urine excretion, change from baseline, LS mean [3]: −643.46 mg/24h
- 24-hour glucose urine excretion, change from baseline, LS mean difference ([3]; vs placebo): 921.26 mg/24h
- Incidence of treatment-emergent adverse events (TEAEs) ([4]; As-treated, 28 days): 52.0%
- Subjects with a TEAE that led to discontinuation of investigational product ([4]; abdominal pain and vomiting): Two
- Incidence of investigational product-related TEAEs ([4]; as judged by the investigator): 40.0%
- Heart rate ([4]; compared with the placebo group): increased heart rate was observed
- Blood pressure (BP) ([4]; in vivo): No meaningful changes
- Hematology, serum chemistry, or urinalysis laboratory values ([4]; in vivo): no clinically meaningful trends
- Severity of TEAEs ([4]; in vivo): mild (Grade 1) or moderate (Grade 2)
- Electrocardiogram (ECG) parameters ([4]; with the exception of heart rate): no clinically meaningful trends
- Body weight, Day 29 change from baseline, mean ([5]; baseline (Day 1) to Day 29): -3.06 kg
- Body weight, Day 29 change from baseline, median ([5]; baseline (Day 1) to Day 29): -2.85 kg
- Body weight, Day 29 percent change from baseline, mean ([5]; baseline (Day 1) to Day 29): −3.30%
- Body weight, Day 29 percent change from baseline, median ([5]; baseline (Day 1) to Day 29): −3.14%
- Proportion of subjects achieving >5% body weight loss ([5]; baseline to Day 29, 3 subjects): 12.5%
- Body weight, Day 29 change from baseline, LS mean ([5]; baseline to Day 29, ANCOVA): -3.16 kg
- Body weight, Day 29 percent change from baseline, LS mean ([5]; baseline to Day 29, ANCOVA): −3.33%
- Body weight, Day 29 change from baseline, LS mean difference ([5]; baseline to Day 29, vs placebo): -2.13 kg
- Body weight, Day 29 percent change from baseline, LS mean difference ([5]; baseline to Day 29, vs placebo): −2.26%
- Change from baseline in CGM mean glucose over 24 hours, mean ([6]; Day 7 (100 μg)): -34.74 mg/dL
- Change from baseline in MAGE of CGM glucose, mean ([6]; Day 7 (100 μg)): -25.74 mg/dL
- Change in CGM glucose AUC0-24 h from baseline, mean ([6]; Day 7 (100 μg)): -832.66 mg·h/dL
- Change in CGM glucose AUC0-24 h from baseline, median ([6]; Day 7 (100 μg)): -962.95 mg·h/dL
- Change in SD over 24 hours in CGM glucose from baseline, mean ([6]; Day 7 (100 μg)): -7.21 mg/dL
- Change in SD over 24 hours in CGM glucose from baseline, median ([6]; Day 7 (100 μg)): -11.16 mg/dL
- Change from baseline in percentage of CGM glucose readings within the hyperglycemic range, mean ([6]; Day 7): −13.99%
- Change from baseline in percentage of CGM glucose readings within the euglycemic range, mean ([6]; Day 7): 7.12%
- Change from baseline in CGM mean glucose over 24 hours, mean ([6]; Day 14 (200 μg)): -28.34 mg/dL
- Change from baseline in MAGE of CGM glucose, mean ([6]; Day 14 (200 μg)): -26.59 mg/dL
- Change in CGM glucose AUC0-24 h from baseline, mean ([6]; Day 14 (200 μg)): -666.05 mg·h/dL
- Change in CGM glucose AUC0-24 h from baseline, median ([6]; Day 14 (200 μg)): -897.02 mg·h/dL
- Change in SD over 24 hours in CGM glucose from baseline, mean ([6]; Day 14 (200 μg)): -7.52 mg/dL
- Change in SD over 24 hours in CGM glucose from baseline, median ([6]; Day 14 (200 μg)): -8.36 mg/dL
- Change from baseline in percentage of CGM glucose readings within the hyperglycemic range, mean ([6]; Day 14): −9.81%
- Change from baseline in percentage of CGM glucose readings within the euglycemic range, mean ([6]; Day 14): 5.31%
- Change in CGM glucose AUC0-24 h from baseline, mean ([6]; Day 28 (LOCF) (300 μg)): -695.16 mg·h/dL
- Change in CGM glucose AUC0-24 h from baseline, median ([6]; Day 28 (LOCF) (300 μg)): -928.48 mg·h/dL
- Change in SD over 24 hours in CGM glucose from baseline, mean ([6]; Day 28 (LOCF) (300 μg)): -8.89 mg/dL
- Change in SD over 24 hours in CGM glucose from baseline, median ([6]; Day 28 (LOCF) (300 μg)): -9.57 mg/dL
- Change in CGM glucose AUC0-24 h from baseline, LS mean ([6]; Day 28 (LOCF), ANCOVA): -658.64 mg·h/dL
- Change in SD over 24 hours in CGM glucose from baseline, LS mean ([6]; Day 28 (LOCF), ANCOVA): -9.73 mg/dL
- Change in SD over 24 hours in CGM glucose from baseline, LS mean difference ([6]; Day 28 (LOCF), vs placebo): -8.45 mg/dL
- Change in CGM glucose AUC0-24 h from baseline, LS mean difference ([6]; Day 28 (LOCF), vs placebo, ANCOVA): -806.61 mg·h/dL
- CV of CGM glucose over 24 hours, change from baseline, LS mean difference ([6]; Day 28, vs placebo): −2.41%
- Change from baseline in CGM mean glucose over 24 hours, LS mean difference ([6]; Day 28, vs placebo): -34.06 mg/dL
- Change from baseline in MAGE of CGM glucose, LS mean difference ([6]; Day 28, vs placebo): -24.83 mg/dL
- Change from baseline in percentage of CGM glucose readings within the euglycemic range, LS mean difference ([6]; Day 28, vs placebo): 8.78%
- Change from baseline in percentage of CGM glucose readings within the hyperglycemic range, LS mean difference ([6]; Day 28, vs placebo): −12.83%
- 7-Day CGM mean glucose, mean ([6]; Days 1 to 7 (100 μg dose)): 116.82 mg/dL
- 7-Day CGM mean glucose, median ([6]; Days 1 to 7 (100 μg dose)): 111.40 mg/dL
- 7-Day CGM mean glucose, mean ([6]; Days 8 to 14 (200 μg dose)): 118.78 mg/dL
- 7-Day CGM mean glucose, median ([6]; Days 8 to 14 (200 μg dose)): 113.48 mg/dL
- 7-Day CGM mean glucose, mean ([6]; Days 15 to 21 (300 μg dose)): 120.94 mg/dL
- 7-Day CGM mean glucose, median ([6]; Days 15 to 21 (300 μg dose)): 106.17 mg/dL
- 7-Day CGM mean glucose, mean ([6]; Days 22 to 28 (300 μg dose)): 115.61 mg/dL
- 7-Day CGM mean glucose, median ([6]; Days 22 to 28 (300 μg dose)): 108.78 mg/dL
- Change from baseline in percentage of CGM glucose readings within the hypoglycemic range, LS mean difference ([6]; in vivo): 3.35%
- Fasting FFA change from baseline, LS mean difference [7]: −0.04 mEq/L
- Subjects ADA positive post-baseline ([8]; 3 subjects): 12.5%
- Subjects ADA positive at Day 29 ([8]; Day 29, 1 subject): 4.2%
- Subjects ADA positive at the End of Study ([8]; End of Study, 2 subjects): 8.3%
- Treatment boosted ADA (baseline titre boosted 4-fold or higher) ([8]; during drug administration): No subjects had a treatment boosted ADA

From patent US20230012936A1, “COMBINATION THERAPY USING GLUCAGON AND GLP-1 CO-AGONISTS FOR THE TREATMENT OF OBESITY” (MEDIMMUNE, LLC, priority 2019, published 2023)
